The subject of one test is PPARγ. The test can be described thus: Western blotting of PPARγ in adipose tissue. In kind it is in vivo, C57BL/6J mice. As to conditions: HFD-fed mice, AnK 10, 20, 40, Feno 250, Metf 300 mg/kg/day, vs HF group. The source says: The 4-week old male C57BL/6J mice (total amount n=63) were obtained from the National Laboratory Animal Center (Taipei, Taiwan). After acclimatization for one week, all of the mice were randomly assigned into a control (CON) group and a high-fat diet (HFD) group. […] After HFD feeding for 8 weeks, the HFD group was randomly subdivided into six groups (n=9 per group) receiving different treatments and fed on HFD. […] The HF+AnK1, HF+AnK2, and HF+AnK3 groups are collectively termed AnK-treated HFD groups in the following examples. The CON mice were administered vehicle. All treatments were administered via oral gavage once daily. After administration for 4 weeks, all mice were fasted 12 hours, and blood was collected from the retro-orbital sinus under ether anesthesia. At the end of the experiment, the mice were sacrificed via carbon dioxide inhalation. […]
About 0.1 g of liver tissue, skeletal muscle, or adipose tissue was used for the homogenate samples. […] The protein concentration in supernatant was determined with a BCA protein assay kit (Thermo Scientific, Rockford, Ill., USA). […] Immunoreactive bands were detected with ECL reagent kit (GE Healthcare BioSciences, Buckinghamshire, UK). The intensity of Western blot signals was analyzed using AlphaEase FC software (Alpha Innotech Corporation, Randburg, South Africa). […]

The next test relates to membrane GLUT4. The test can be described thus: Membrane GLUT4 expression in C2C12 cells (Western blotting). In kind it is cell-based. As to conditions: AnK 1, 5, 10 and 25 μg/mL 30 min, insulin 100 nM 25 min, vs CON group. Here is the method: (§1) For the in vitro assay, C2C12 skeletal myoblasts (ATCC CRL-1772) were cultured at 37° C. in Dulbecco's modified Eagle's medium (DMEM; Gibco BRL) supplemented with 10% fetal bovine serum (FBS; Hyclone) and 100 U/ml penicillin and 100 μg/ml streptomycin (Gibco BRL), and split 1:4 using 0.05% trypsin at 80% confluency. Myoblasts were diluted and placed in a 9 cm dish. Cells were cultured to achieve 80-90% confluency and refreshed with […] (2% FBS/DMEM) every 24 hours for 5-7 days. The term “confluency” refers to the proportion of the surface of a culture dish that is covered by adherent cells growing in the dish. 100% confluency refers to complete coverage of the surface by the cells.
(§2) Differentiated C2C12 cells were serum-starved in DMEM/BSA at 37° C. for 2 hours prior to incubation with AnK (at 1, 5, 10, and 25 μg/mL) or vehicle (0.2% dimethyl sulfoxide (DMSO) in saline) for 30 min or with 100 nM insulin for 25 min.
The C2C12 cells of the other group were homogenized in a homogenization buffer having a pH value of about 7.4 and containing 250 mM sucrose, 50 mM Tris, and 0.2 mM edetic acid (EDTA). […]
(§3) Protein concentrations were determined via BCA assay (Pierce). […]
(§4) SDS polyacrylamide gel electrophoresis (SDS-PAGE) and Western blotting. Proteins were detected with antibodies specific for GLUT4, Akt, phospho-Akt (Ser^473), AMPK, and phospho-AMPK (Thr^172).
A general note: Immunoblotting shows a protein as a band on a membrane.

For test [1], the system named is phospho-AMPK (Thr^172)/total-AMPK. The test can be described thus: AMPK phosphorylation in C2C12 cells (Western blotting). The test is classed as cell-based. The conditions noted are these: AnK 1, 5, 10 and 25 μg/mL 30 min, insulin 100 nM 25 min, vs CON group. Here is the method:
as §1, §2
(§5) The abovementioned C2C12 cells were then washed three times with phosphate buffered saline (PBS) and divided into two groups. […]
as §3, §4

For a further test, the system named is human neutrophils. As to conditions: concentration-dependent 1˜25 mM; induced by fMLP and TPA in human neutrophils; cited from earlier work.
The subject of test [2] is phospho-Akt (Ser^473)/total-Akt. The experiment in a line: Akt phosphorylation in C2C12 cells (Western blotting). The test is classed as cell-based. The conditions noted are these: AnK 1, 5, 10 and 25 μg/mL 30 min, insulin 100 nM 25 min, vs CON group. Here is the method: as §1, §2, §5, §3, §4

Turning to `C=C(CC[C@@H](C)[C@H]1CC[C@H]2C3=C(C(=O)C[C@]12C)[C@@]1(C)CC[C@@H](O)[C@](C)(O)[C@@H]1C[C@@H]3O)C(C)C(=O)O` (stereo partly drawn) [AnK, 3α,4β,7β-trihydroxy-4α-methylergosta-8,24(28)-dien-11-on-25S-26-oic acid], the “expression levels of PPARγ (protein)” value in the test with PPARγ was “significantly reduced”. The “protein expression of membrane GLUT4” value in the test on membrane GLUT4 is on record as “enhanced”. Also, the “expression ratio of phospho-AMPK (p-AMPK) to total-AMPK (t-AMPK)” value in test [1] is recorded as “higher”. In addition, the “anti-inflammatory effects (modulation of leukocyte activity, inhibition of reactive oxygen species production)” value in the test on human neutrophils was “anti-inflammatory effects”. The “expression ratio of phospho-Akt (p-Akt) to total-Akt (t-Akt)” value in test [2] is on record as “higher”.

The values are drawn from patent publication US10124012B2, “Method for treatment of hyperglycemia and hyperlipidemia” (priority 2016, dated 2018).
